Data set [1] is described as follows: Half-life in mouse liver microsomes in presence of NADPH by LC-MS/MS analysis. The class given is ADME, Microsome. A general note: Liver microsomes are a subcellular fraction often used to study metabolism.
Data set [2] addresses T1, Protein deacetylase HDAC6 (Homo sapiens) (UniProt Q9UBN7).
T1 sequence (whole entry): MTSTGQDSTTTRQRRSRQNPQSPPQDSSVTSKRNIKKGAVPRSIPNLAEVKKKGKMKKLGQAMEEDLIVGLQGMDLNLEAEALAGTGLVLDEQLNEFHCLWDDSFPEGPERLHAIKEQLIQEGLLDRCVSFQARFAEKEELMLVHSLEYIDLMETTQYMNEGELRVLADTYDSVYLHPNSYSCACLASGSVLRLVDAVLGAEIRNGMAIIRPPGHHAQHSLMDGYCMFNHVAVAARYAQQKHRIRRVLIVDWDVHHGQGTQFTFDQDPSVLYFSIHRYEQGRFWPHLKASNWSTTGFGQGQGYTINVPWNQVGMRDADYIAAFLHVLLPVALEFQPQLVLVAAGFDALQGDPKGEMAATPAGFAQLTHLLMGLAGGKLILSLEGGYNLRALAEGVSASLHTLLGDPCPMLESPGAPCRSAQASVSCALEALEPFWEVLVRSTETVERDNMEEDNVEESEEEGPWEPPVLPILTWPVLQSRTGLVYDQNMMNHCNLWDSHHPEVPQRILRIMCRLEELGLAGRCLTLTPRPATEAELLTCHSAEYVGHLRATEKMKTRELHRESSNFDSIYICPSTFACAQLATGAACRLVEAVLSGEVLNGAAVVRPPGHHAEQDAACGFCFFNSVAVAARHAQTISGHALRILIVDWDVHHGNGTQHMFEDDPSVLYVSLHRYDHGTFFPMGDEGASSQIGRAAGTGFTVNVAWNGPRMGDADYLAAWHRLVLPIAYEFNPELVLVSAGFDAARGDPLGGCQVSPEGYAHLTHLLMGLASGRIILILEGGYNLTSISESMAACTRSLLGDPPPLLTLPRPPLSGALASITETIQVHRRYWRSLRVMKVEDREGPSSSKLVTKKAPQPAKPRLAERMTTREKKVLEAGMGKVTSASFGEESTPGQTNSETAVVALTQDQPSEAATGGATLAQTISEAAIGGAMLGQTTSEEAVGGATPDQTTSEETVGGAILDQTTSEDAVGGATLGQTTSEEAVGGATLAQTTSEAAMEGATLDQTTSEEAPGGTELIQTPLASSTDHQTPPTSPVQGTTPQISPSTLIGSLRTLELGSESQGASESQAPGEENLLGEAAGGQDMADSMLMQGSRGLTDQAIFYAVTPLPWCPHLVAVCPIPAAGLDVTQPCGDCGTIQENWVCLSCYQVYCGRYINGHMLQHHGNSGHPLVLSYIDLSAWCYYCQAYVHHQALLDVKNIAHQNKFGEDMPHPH
As to the kind of experiment: Irreversible inhibition of HDAC6 in human A549 cells assessed as acetyl alpha-tubulin level at 0.4 uM incubated for 5 hrs followed by drug wash-out for 1 hr by western blot analysis relative to control. The class given is cell-based. A general note: A western blot detects proteins with antibodies after separation by electrophoresis.

The next data set has as its target T2, Histone deacetylase 8 (Homo sapiens, UniProt Q9BY41).
T2 sequence (Q9BY41 whole entry): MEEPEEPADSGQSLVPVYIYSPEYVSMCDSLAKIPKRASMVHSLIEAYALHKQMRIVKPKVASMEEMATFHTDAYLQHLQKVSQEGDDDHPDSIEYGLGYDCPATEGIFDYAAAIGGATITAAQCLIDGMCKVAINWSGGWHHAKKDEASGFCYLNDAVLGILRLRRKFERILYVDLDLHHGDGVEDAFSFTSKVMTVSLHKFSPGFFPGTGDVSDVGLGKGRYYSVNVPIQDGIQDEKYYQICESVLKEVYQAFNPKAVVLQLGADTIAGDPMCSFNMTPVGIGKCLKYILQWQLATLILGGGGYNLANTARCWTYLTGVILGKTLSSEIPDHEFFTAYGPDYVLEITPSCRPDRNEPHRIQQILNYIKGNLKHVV
The data set is described as follows: Inhibition of C-terminal His-tagged human full length recombinant HDAC8 (1 to 377 residues) expressed in Sf9 cells using Boc-Lys(trifluoroacety1)-AMC as substrate preincubated with enzyme for 1 hr followed by substrate addition and measured after 30 mins by fluorescence based analysis.

The next data set relates to RPMI-8226. As to the kind of experiment: Induction of apoptosis in human RPMI-8226 cells incubated for 24 hrs by AnnexinV-FITC/PI staining based flow cytometry. The class given is functional, cell-based. The settings on record: dose 0.1-0.5 µM. A general note: Flow cytometry measures light scatter and fluorescence of single cells or particles in a stream.
Data set [3] is described as follows: Intrinsic clearance in human liver microsomes in presence of NADPH by LC-MS/MS analysis. Type of data set: ADME, Microsome. The settings on record: read-out: CLH.
Data set [4] concerns the target T3, Class 1 histone deacetylase (Homo sapiens) (UniProt Q13547+O15379+Q92769+Q9BY41). The data set is described as follows: Irreversible inhibition of class 1 HDAC in human A549 cells assessed as acetyl histone H4 level at 0.4 uM incubated for 5 hrs followed by drug wash-out for 6 hrs by western blot analysis relative to control. Type of data set: cell-based.
The target of data set [5] is T4, Protein deacetylase HDAC6 (Homo sapiens, UniProt Q9UBN7).
T4 sequence (Q9UBN7 whole entry): T1 sequence (whole entry)
The data set is described as follows: Inhibition of N-terminal GST-tagged human full length recombinant HDAC6 (1 to 1215 residues) expressed in Sf9 cells using Boc-Lys(acetyI)-AMC as substrate preincubated with enzyme for 1 hr followed by substrate addition and measured after 30 mins by fluorescence based analysis.

For data set [6], the target named is T3, Class 1 histone deacetylase (Homo sapiens). The data set is described as follows: Irreversible inhibition of class 1 HDAC in human A549 cells assessed as acetyl histone H4 level at 0.4 uM incubated for 5 hrs followed by drug wash-out and measured immediately after drug wash-out by western blot analysis relative to control. Type of data set: cell-based.
Data set [7] in a line: Intrinsic clearance in rat liver microsomes in presence of NADPH by LC-MS/MS analysis. The note with it: read-out: CLH. The class given is ADME, Microsome.

T3 sequence (O15379 whole entry, looked up, one chain of several): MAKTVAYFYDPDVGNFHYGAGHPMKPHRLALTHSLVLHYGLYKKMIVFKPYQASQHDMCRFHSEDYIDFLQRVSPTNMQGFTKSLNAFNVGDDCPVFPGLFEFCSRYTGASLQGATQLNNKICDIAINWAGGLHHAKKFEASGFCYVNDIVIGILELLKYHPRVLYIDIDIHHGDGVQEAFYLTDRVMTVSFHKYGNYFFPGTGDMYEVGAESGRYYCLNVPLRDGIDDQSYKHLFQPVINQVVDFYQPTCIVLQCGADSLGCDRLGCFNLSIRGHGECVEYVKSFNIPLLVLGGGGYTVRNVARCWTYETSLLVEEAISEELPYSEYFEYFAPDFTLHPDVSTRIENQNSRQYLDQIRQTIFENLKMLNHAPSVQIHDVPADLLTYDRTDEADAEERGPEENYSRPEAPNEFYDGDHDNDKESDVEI
T3 sequence (Q13547 whole entry, looked up, one chain of several): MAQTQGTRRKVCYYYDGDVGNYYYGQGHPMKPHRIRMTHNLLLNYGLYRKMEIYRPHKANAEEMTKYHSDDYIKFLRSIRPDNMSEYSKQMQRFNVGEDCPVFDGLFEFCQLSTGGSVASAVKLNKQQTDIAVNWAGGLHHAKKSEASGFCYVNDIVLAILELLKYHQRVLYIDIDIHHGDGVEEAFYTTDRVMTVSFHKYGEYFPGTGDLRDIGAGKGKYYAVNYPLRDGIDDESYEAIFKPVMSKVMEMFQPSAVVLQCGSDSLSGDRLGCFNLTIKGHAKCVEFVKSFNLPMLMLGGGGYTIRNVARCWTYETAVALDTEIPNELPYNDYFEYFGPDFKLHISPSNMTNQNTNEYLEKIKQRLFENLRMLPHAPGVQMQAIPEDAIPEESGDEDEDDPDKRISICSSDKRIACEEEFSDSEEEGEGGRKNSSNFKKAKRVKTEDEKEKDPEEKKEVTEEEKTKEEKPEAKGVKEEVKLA
T3 sequence (Q92769 whole entry, looked up, one chain of several): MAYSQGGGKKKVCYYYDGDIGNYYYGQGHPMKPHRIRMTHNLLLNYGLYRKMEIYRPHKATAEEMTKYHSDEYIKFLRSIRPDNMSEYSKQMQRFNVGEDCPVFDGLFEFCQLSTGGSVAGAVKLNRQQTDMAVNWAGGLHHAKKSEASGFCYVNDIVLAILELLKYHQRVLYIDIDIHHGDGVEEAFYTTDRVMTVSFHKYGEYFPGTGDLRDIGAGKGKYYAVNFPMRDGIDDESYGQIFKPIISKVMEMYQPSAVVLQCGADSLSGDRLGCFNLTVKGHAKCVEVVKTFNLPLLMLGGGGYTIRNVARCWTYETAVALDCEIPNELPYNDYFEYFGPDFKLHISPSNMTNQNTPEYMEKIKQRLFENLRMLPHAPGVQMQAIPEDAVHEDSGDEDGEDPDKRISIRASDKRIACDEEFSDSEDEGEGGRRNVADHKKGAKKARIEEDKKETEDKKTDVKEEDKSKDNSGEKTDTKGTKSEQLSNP

Usually half-life stands for the time in which the quantity being followed falls by half. One may read the IC50 as the concentration at which inhibition is half-maximal. `O=C(NO)c1ccc(COc2no[n+]([O-])c2S(=O)(=O)c2ccccc2)cc1`: the half-life in [1] was 1.8 min. Moreover, the fold change (FC) in data set [2] came out at 5.3; in data set [4], 1; in data set [6] it was 0.7. Moreover, the figures for the IC50 (at Histone deacetylase 8; in data set [5]) were 2100 nM and 33 nM, respectively. Also, the Activity result in the data set on RPMI-8226 was “Dose-Dependent Effect”. Further, the CLint scaled in [3] was found to be 230 mL/min/kg; in data set [7] it was 270 mL/min/kg.

Values taken from ChEMBL document CHEMBL5346971, “Discovery of the First Irreversible HDAC6 Isoform Selective Inhibitor with Potent Anti-Multiple Myeloma Activity” (J Med Chem, 2023).
